# How the values were obtained:
# [1] = 37% formaldehyde; cited from earlier work
# [2] = target: T1, influenza hemagglutinin protein (Influenza A virus, UniProt P03452); assay: LCMS/MS of hemagglutinin protein reacted with EGCG; conditions: EGCG modified in the form of dihydro epigallocatechin (C15H11O6)
# T1 construct: host or cells: human cells
# Experimental: In addition, the hemagglutinin protein reacted with EGCG was analyzed through liquid chromatography mass spectrometry (LCMS/MS). The protein bands stained with Coomassie blue were separated by in-gel digestion, subjected to alkylation and de-staining processes, and then prepared into peptide fragments using trypsin. The prepared peptide fragments were analyzed using LCMS/MS [(Q-Exactive mass spectrometer (Thermo Fisher Scientific, Bremen, Germany) coupled with an Easy-nLC system (Thermo Fisher Scientific, Odense, Denmark)].
# T1 sequence (P03452 18-565): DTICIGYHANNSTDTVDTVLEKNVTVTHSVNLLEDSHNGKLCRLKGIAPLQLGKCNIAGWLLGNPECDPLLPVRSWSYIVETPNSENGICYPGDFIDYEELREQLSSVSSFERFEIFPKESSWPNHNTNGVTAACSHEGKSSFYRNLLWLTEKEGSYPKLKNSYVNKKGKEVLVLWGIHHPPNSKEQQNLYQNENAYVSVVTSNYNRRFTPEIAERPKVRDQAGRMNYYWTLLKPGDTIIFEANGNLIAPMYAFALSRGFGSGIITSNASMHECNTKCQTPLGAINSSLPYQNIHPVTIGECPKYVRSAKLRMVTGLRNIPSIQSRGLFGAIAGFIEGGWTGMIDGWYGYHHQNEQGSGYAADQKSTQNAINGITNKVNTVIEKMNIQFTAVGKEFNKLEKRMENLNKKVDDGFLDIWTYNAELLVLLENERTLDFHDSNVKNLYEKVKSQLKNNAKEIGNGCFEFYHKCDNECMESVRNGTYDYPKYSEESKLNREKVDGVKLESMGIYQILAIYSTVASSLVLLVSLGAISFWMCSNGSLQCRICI
Compound,amount that can lead to death in adults [1] [mL],binding site of EGCG on hemagglutinin (LCMS/MS) [2]
C=O [formaldehyde],30,
(−)-epigallocatechin gallate [EGCG],,"bound to the cysteine residue, which is the 152nd amino acid of the influenza hemagglutinin protein"

# — patent US20180177860A1, “VACCINE […] I[…] GREEN TEA EXTRACT, AND PREPARATION METHOD THEREFOR” (priority 2015, published 2018)
